# Experimental data: patent US10738042B2, “Phosphonamidates that are Bcl family antagonists for use in clinical management of conditions caused or mediated by senescent cells and for treating cancer” (Unity Biotechnology, priority 2018, dated 2020)
# How the values were obtained:
# [1] = tested on: 3MR or INK-ATTAC mice exposed to cigarette smoke; experiment: Cigarette smoke COPD model, oxygen saturation by pulse oximeter; type: in vivo, mouse; settings: after two months of cigarette smoke exposure; FIG. 8
# Excerpt: The mice used in this study include the 3MR strain, described in US 2017/0027139 A1 and in Demaria et al., Dev Cell. 2014 Dec. 22; 31(6): 722-733. The 3MR mouse has a transgene encoding thymidine kinase that converts the prodrug ganciclovir (GCV) to a compound that is lethal to cells. The enzyme in the transgene is placed under control of the p16 promoter, which causes it to be specifically expressed in senescent cells. Treatment of the mice with GCV eliminates senescent cells.
# Other mice used in this study include the INK-ATTAC strain, described in US 2015/0296755 A1 and in Baker et al., Nature 2011 Nov. 2; 479(7372):232-236. The INK-ATTAC mouse has a transgene encoding switchable caspase 8 under control of the p16 promoter. The caspase 8 can be activated by treating the mice with the switch compound AP20187, whereupon the caspase 8 directly induces apoptosis in senescent cells, eliminating them from the mouse.
# To conduct the experiment, six-week-old 3MR (n=35) or INK-ATTAC (n=35) mice were chronically exposed to cigarette smoke generated from a Teague TE-10 system, an automatically-controlled cigarette smoking machine that produces a combination of side-stream and mainstream cigarette smoke in a chamber, which is transported to a collecting and mixing chamber where varying amounts of air is mixed with the smoke mixture. The COPD protocol was adapted from the COPD core facility at Johns Hopkins University (Rangasamy et al., 2004, J. Clin. Invest. 114:1248-1259; Yao et al., 2012, J. Clin. Invest. 122:2032-2045).
# Mice received a total of 6 hours of cigarette smoke exposure per day, 5 days a week for 6 months. Each lighted cigarette (3R4F research cigarettes containing 10.9 mg of total particulate matter (TPM), 9.4 mg of tar, and 0.726 mg of nicotine, and 11.9 mg carbon monoxide per cigarette [University of Kentucky, Lexington, Ky.]) was puffed for 2 seconds and once every minute for a total of 8 puffs, with the flow rate of 1.05 L/min, to provide a standard puff of 35 cm3. The smoke machine was adjusted to produce a mixture of side stream smoke (89%) and mainstream smoke (11%) by smoldering 2 cigarettes at one time. The smoke chamber atmosphere was monitored for total suspended particulates (80-120 mg/m3) and carbon monoxide (350 ppm). […]
# After two months of cigarette smoke (CS) exposure, lung function was assessed by monitoring oxygen saturation using the MouseSTAT PhysioSuite™ pulse oximeter (Kent Scientific). […] Mice were monitored for 30 seconds and the average peripheral capillary oxygen saturation (SpO2) measurement over this duration was calculated.
# [2] = tested on: cancer cells in human patients; settings: cited from earlier work
# [3] = tested on: LDLR-/- mice fed a high fat diet; experiment: Atherosclerosis model, Sudan IV staining of aortas for plaque; type: in vivo, mouse; settings: HFD; 25 mg/kg intraperitoneally; timepoint 3 (week 12); FIG. 9
# Procedure: (§1) Two groups of LDLR−/− mice (10 weeks) are fed a high fat diet (HFD) (Harlan Teklad TD.88137) having 42% calories from fat, beginning at Week 0 and throughout the study. Two groups of LDLR−/− mice (10 weeks) are fed normal chow (−HFD). From weeks 0-2, one group of HFD mice and −HFD mice are treated with Nutlin-3A (25 mg/kg, intraperitoneally). One treatment cycle is 14 days treatment, 14 days off. Vehicle is administered to one group of HFD mice and one group of −HFD mice. At week 4 (timepoint 1), one group of mice are sacrificed and to assess presence of senescent cells in the plaques. For the some of the remaining mice, Nutlin-3A and vehicle administration is repeated from weeks 4-6. At week 8 (timepoint 2), the mice are sacrificed and to assess presence of senescent cells in the plaques. The remaining mice are treated with Nutlin-3A or vehicle from weeks 8-10. At week 12 (timepoint 3), the mice are sacrificed and to assess the level of plaque and the number of senescent cells in the plaques.
# (§2) At the end of timepoint 3, LDLR−/− mice fed a HFD and treated with Nutlin-3A or vehicle (n=3 for all groups) were sacrificed, and aortas were dissected and stained with Sudan IV to detect the presence of lipid. Body composition of the mice was analyzed by MRI, and circulating blood cells were counted by Hemavet™.
# [4] = tested on: C57BL/6J mice with ACL surgery-induced osteoarthritis; experiment: Osteoarthritis model, weight bearing test; type: in vivo, mouse; settings: 4 weeks post-surgery; FIG. 6A
# Procedure: (§3) The model was implemented as follows. C57BL/6J mice underwent surgery to cut the anterior cruciate ligament of one rear limb to induce osteoarthritis in the joint of that limb. During week 3 and week 4 post-surgery, the mice were treated with 5.8 μg of Nutlin-3A (n=7) per operated knee by intra-articular injection, q.o.d. for 2 weeks. At the end of 4 weeks post-surgery, joints of the mice were monitored for presence of senescent cells, assessed for function, monitored for markers of inflammation, and underwent histological assessment.
# Function of the limbs was assessed 4 weeks post-surgery by a weight bearing test to determine which leg the mice favored. The mice were allowed to acclimate to the chamber on at least three occasions prior to taking measurements. Mice were maneuvered inside the chamber to stand with one hind paw on each scale. The weight that was placed on each hind limb was measured over a three second period. At least three separate measurements were made for each animal at each time point. The results were expressed as the percentage of the weight placed on the operated limb versus the contralateral unoperated limb.
# [5] = tested on: C57BL/6J mice with ACL surgery-induced osteoarthritis; experiment: Osteoarthritis model, histopathology of joint tissue; type: in vivo, mouse; settings: FIGS. 6B-6D
# Procedure: as §3
# [6] = tested on: SASP factors and senescent cell markers in the aortic arch; experiment: Atherosclerosis model, RT-PCR of SASP factors and senescent cell markers in aortic arches; type: in vivo, mouse; settings: HFD, 25 mg/kg intraperitoneally
# Procedure: as §1, with “At week 8 (timepoint 2), the mice are sacrificed and to assess presence of senescent cells in the plaques. The remaining mice are treated with Nutlin-3A or vehicle from weeks 8-10. At week 12 (timepoint 3), the mice are sacrificed and to assess the level of plaque and the number of senescent cells in the plaques.” left out
# At the end of timepoint 1, LDLR−/− mice fed a HFD and treated with Nutlin-3A or vehicle were sacrificed (n=3, all groups), and the aortic arches were dissected for RT-PCR analysis of SASP factors and senescent cell markers. Values were normalized to GAPDH and expressed as fold-change versus age-matched, vehicle-treated LDLR−/− mice on a normal diet.
# At the end of timepoint 2, LDLR−/− mice fed a HFD and treated with Nutlin-3A or vehicle (n=3 for all groups) were sacrificed, and aortic arches were dissected for RT-PCR analysis of SASP factors and senescent cell markers. Values were normalized to GAPDH and expressed as fold-change versus age-matched, vehicle-treated LDLR−/− mice on a normal diet.
# [7] = tested on: LDLR-/- mice fed a high fat diet; experiment: Atherosclerosis model, body composition (MRI) and circulating blood cell counts (Hemavet); type: in vivo, mouse; settings: timepoint 3 (week 12)
# Procedure: as §1, §2
# [8] = tested on: p16, IL-6, MMP13 expression in the operated joint; experiment: Osteoarthritis model (ACL surgery), qRT-PCR of senescence markers and SASP factors in operated joints; type: in vivo, mouse; settings: 5.8 μg per operated knee intra-articular, 4 weeks post-surgery
# Procedure: as §3
# Two control groups of mice were included in the studies performed: one group comprising C57BL/6J or 3MR mice that had undergone a sham surgery (n=3) (i.e., surgical procedures followed except for cutting the ACL) and intra-articular injections of vehicle parallel to the GCV (ganciclovir) treated group; and one group comprising C57BL/6J or 3MR mice that had undergone an ACL surgery and received intra-articular injections of vehicle (n=5) parallel to the GCV-treated group. RNA from the operated joints of mice from the Nutlin-3A treated mice was analyzed for expression of SASP factors (mmp3, IL-6) and senescence markers (p16). qRT-PCR was performed to detect mRNA levels.
smiles,measurement,setting,value
CC[C@H](C(=O)N1CCCC[C@H]1C(=O)O[C@H](CCc1ccc(OC)c(OC)c1)c1cccc(OCC(=O)NCC(CNC(=O)COc2cccc([C@@H](CCc3ccc(OC)c(OC)c3)OC(=O)[C@@H]3CCCCN3C(=O)[C@@H](CC)c3cc(OC)c(OC)c(OC)c3)c2)CN(C)C)c1)c1cc(OC)c(OC)c(OC)c1 [AP2018],SpO2 levels compared with untreated controls,[1],statistically significant increases
Nc1nc(O)c2ncn(COC(CO)CO)c2n1 [ganciclovir],SpO2 levels compared with untreated controls,[1],statistically significant increases
CC1(C)CCC(c2ccc(Cl)cc2)=C(CN2CCN(c3ccc(C(=O)NS(=O)(=O)c4ccc(N[C@H](CCN5CCOCC5)CSc5ccccc5)c(S(=O)(=O)C(F)(F)F)c4)cc3)CC2)C1 [ABT-263],SpO2 levels compared with untreated controls,[1],statistically significant increases
CN(C)CC[C@H](CSc1ccccc1)Nc1ccc(S(=O)(=O)NC(=O)c2ccc(N3CCN(Cc4ccccc4-c4ccc(Cl)cc4)CC3)cc2)cc1[N+](=O)[O-] [ABT-737],effect against cancer cells in human patients,[2],effective against some types of cancer cells
COc1ccc(C2=N[C@@H](c3ccc(Cl)cc3)[C@@H](c3ccc(Cl)cc3)N2C(=O)N2CCNC(=O)C2)c(OC(C)C)c1 [Nutlin-3A],reduction of surface area covered by plaques in the descending aorta,[3],about 45%
same,SpO2 levels compared with untreated controls,[1],statistically significant increases
same,weight bearing: favoring of the unoperated hind limb over the operated hind limb,[4],abrogated this effect
same,destruction of the proteoglycan layer (histopathology),[5],completely abrogated this effect
same,"expression of SASP factors and senescent cell markers MMP3, MMP13, PAI1, p21, IGFBP2, IL-1A, IL-1B","[6]; after one treatment cycle (timepoint 1, week 4)",reduced expression
same,expression of SASP factors and senescent cell markers in the aortic arch,"[6]; multiple treatment cycles (timepoint 2, week 8)",reduced expression of most markers
same,lymphocyte counts versus vehicle treated mice,[7],equivalent
same,platelet counts versus vehicle treated mice,[7],equivalent
same,expression of p16 in the tissue,"[8]; q.o.d. for 2 weeks, FIG. 5A",reduced the expression back to below the level of the controls
same,expression of IL-6 in the tissue,"[8]; q.o.d. for 2 weeks, FIG. 5B",reduced the expression back to below the level of the controls
same,expression of MMP13 in the tissue,"[8]; q.o.d. for 2 weeks, FIG. 5C",reduced the expression back to below the level of the controls
same,senescent cells in the joint,[8],cleared senescent cells from the joint
